Values of other authors, collected in US20110313027A1, “METHODS AND SUBSTANCES FOR STIMULATING MUSCLE REGENERATION” (priority 2008, published 2011).

System: SERCAs
Settings: cultured muscle cells

Question: Which “activity of an NFAT reporter construct” value does the source give for `C/C=C(/C)C(=O)O[C@H]1C(C)=C2[C@H]([C@@H]1OC(=O)CCCCCCC)[C@@](C)(OC(C)=O)C[C@H](OC(=O)CCC)[C@@]1(O)[C@H]2OC(=O)[C@@]1(C)O` [thapsigargin] here?
Answer: increased the activity

Question: And the “myotube growth and differentiation” value?
Answer: decreases myotube growth and differentiation
